According to patent publication US11845773B2, “Trehalose analogues” (Central Michigan University, priority 2016, dated 2023):

Tests used:
[1] = tested on: Msmeg; test: Metabolic labeling of Msmeg with TMM reporters 1-6 (CuAAC, SPAAC, tetrazine ligation or one-step); details: 4 h; for concentration of labeling saturation: Msmeg and Cglut, range up to 250 μM, flow cytometry (FIG. 62)
[2] = tested on: Ag85; test: Effect of ebselen on AlkTMM labeling in Msmeg (Ag85 dependency); type: cell-based, Mycobacterium smegmatis; details: ebselen 50 μg/mL 8 h; for decrease of labeling upon treatment of Msmeg with ebselen: then reporter 4 h (O-AlkTMM 50 μM; N-AlkTMM 100 μM)
Procedure: Effect of ebselen on AlkTMM labeling in Msmeg. Msmeg was cultured in 7H9 liquid medium in 96-well plates in the presence of ebselen (50 μg/mL) for 8 hours, after which the chemical reporter (O-AlkTMM, 50 μM; N-AlkTMM, 100 μM; 6-TreAz, 25 μM) was added and the cells were incubated for another 4 hours. Cells were subjected to CuAAC and analyzed by flow cytometry as described above.

[3] = tested on: Msmeg PG-AGM and extractable lipids fractions; test: Cellular fractionation and fluorescence analysis of labeled Msmeg; type: cell-based, Mycobacterium smegmatis; details: for distribution of fluorescence between PG-AGM and extractable lipids fractions: Msmeg 4 h, O-AlkTMM 50 μM, N-AlkTMM 250 μm, 6-TreAz 25 μM, CHCl3/CH3OH extraction
Procedure: Cellular fractionation and analysis of labeled Msmeg. 10 mL Msmeg cultures were grown in 7H9 liquid medium in the presence of O-AlkTMM (50 μM), N-AlkTMM (250 μm) or left untreated in 15 mL conical tubes. A higher concentration of N-AlkTMM was used to maximize labeling efficiency. In parallel, cultures were grown in the presence of 6-TreAz (25 μM) or left […] untreated. Cells were incubated with shaking for 4 h at 37° C. until reaching late-log phase, then pelleted by centrifugation and washed with PBSB three times as described above. For O- and N-AlkTMM-labeled cells and their untreated control, the above-described click chemistry procedure was carried out with Az488 at a reaction volume of 500 μL. For 6-TreAz-labeled cells and their untreated control, the above-described click chemistry procedure was carried out with Alk488 at a reaction volume of 500 μL. After the click reactions, cells were pelleted by centrifugation and washed with PBSB three times as described above. Aliquots were removed and resuspended in PBS 1× for measurement of OD600 (for normalization of fluorescence values) and analysis by flow cytometry as shown in FIG. 13. The remainder of the cells were resuspended in 1 mL HPLC grade CH3OH and transferred to a glass screw-cap culture tube containing 2 mL CHCl3 and equipped with a stir bar. The CHCl3/CH3OH (2:1) cell suspension was stirred overnight to accomplish separation of the soluble extractable lipids from the insoluble PG-AGM material. The insoluble material was pelleted by centrifugation (3,600 rpm, 10 minutes, room temperature) and washed two times with CHCl3/CH3OH (2:1). The CHCl3/CH3OH (2:1) supernatants containing soluble extractable lipids were combined in a 20 mL glass scintillation vial and dried by rotary evaporation. Both fractions were subjected to TLC analysis as described in FIG. 12 to confirm separation of the extractable lipids from the PG-AGM material. Both fractions were then resuspended in 1 mL 5% aqueous tetrabutylammonium hydroxide (TBAH) in glass screw-cap culture tubes, sealed and then stirred overnight at 100° C. to saponify and solubilize the samples. Next, the samples were cooled to room temperature and 200 μL aliquots were transferred to a black flat-bottom 96-well plate.

[4] = tested on: SugABC-LpqY trehalose transporter; test: Labeling in Msmeg wild type versus Msmeg ΔsugC; type: cell-based, Mycobacterium smegmatis; details: Msmeg wild type vs ΔsugC
[5] = tested on: Bacillus subtilis; test: AlkTMM labeling specificity, B. subtilis; type: cell-based; details: species specificity, flow cytometry and microscopy
[6] = tested on: C. glutamicum; test: AlkTMM labeling specificity, C. glutamicum; type: cell-based, Corynebacterium glutamicum; details: species specificity, flow cytometry and microscopy
[7] = tested on: Msmeg; test: Growth of Msmeg during treatment with probes; type: cell-based, Mycobacterium smegmatis; details: up to 250 μM
Procedure: Plates were incubated at 37° C. […] Tubes were incubated at 37° C.

[8] = tested on: Escherichia coli; test: AlkTMM labeling specificity, E. coli; type: cell-based; details: species specificity, flow cytometry and microscopy
[9] = tested on: Msmeg; test: Competition of AlkTMM labeling in Msmeg with unlabeled probes; type: cell-based, Mycobacterium smegmatis; details: competitor 250, 1000, 5000 μM, 4 h; O-AlkTMM 50 μM with O—C7TMM, N-AlkTMM 100 μM with N—C7TMM
Procedure: Competition of AlkTMM labeling in Msmeg. For O-AlkTMM competition experiments, Msmeg was cultured in 7H9 liquid medium in 96-well plates in the presence of O-AlkTMM (50 μM) and its unlabeled version, O—C7TMM, at concentrations of 250, 1000, and 5000 μM (or without competitor) for 4 h. For N-AlkTMM competition experiments, Msmeg was cultured in 7H9 liquid medium in the presence of N-AlkTMM (100 μM) and its unlabeled version, […], at concentrations of 250, 1000, and 5000 μM (or without competitor) for 4 h. Cells were subjected to CuAAC and analyzed by flow cytometry as described above.

[10] = tested on: M. smegmatis mc2155 (Msmeg); test: Metabolic labeling of Msmeg with AlkTMM probes, CuAAC with Az488, flow cytometry / microscopy; type: cell-based, Mycobacterium smegmatis; design: concentration at which labeling was saturable: unit not given here; details: for labeling after only a few seconds of culture time / labeling features in time-course fluorescence microscopy: Msmeg; for change in labeling between log- and stationary-phase Msmeg: growth phase dependence; for labeling of Msmeg: species specificity, flow cytometry and microscopy
[11] = Water solubility of reporters
[12] = tested on: Cglut; test: Metabolic labeling of Cglut with TMM reporters 4-6; details: flow cytometry

6-O-(10-undecynoyl)-α,α-D-trehalose [O-AlkTMM-C11]
dependence of labeling on acyl chain length ([1]; Msmeg, 50 μM reporter, azido-488 CuAAC, flow cytometry): small increase

[N-]=[N+]=NC[C@H]1O[C@H](O[C@H]2O[C@H](CO)[C@@H](O)[C@H](O)[C@H]2O)[C@H](O)[C@@H](O)[C@@H]1O [6-TreAz, reference compound]
effect of ebselen treatment on Msmeg labeling ([2]; then 6-TreAz 25 μM 4 h): did not reduce | distribution of fluorescence between PG-AGM and extractable lipids fractions [3]: signal exclusively in the extractable lipids fraction

C#CCCCCC(=O)NCC1O[C@H](O[C@H]2OC(CO)[C@@H](O)C(O)[C@H]2O)C(O)[C@@H](O)[C@@H]1O (stereo partly drawn) [N-AlkTMM, N-(6-heptynoyl)-6-amino-6-deoxy-α,α-D-trehalose]
dependence of incorporation on trehalose transporter SugABC-LpqY [4]: not dependent on the trehalose transporter SugABC-LpqY | labeling of B. subtilis [5]: no labeling above background | labeling of C. glutamicum [6]: strong labeling of the cell surface | growth impairment of Msmeg [7]: no growth impairment | labeling of E. coli [8]: no labeling above background | decrease of labeling upon treatment of Msmeg with ebselen [2]: ~85% | competition of labeling signal by unlabeled version of the probe [9]: Dose-dependent competition of signal | distribution of fluorescence between PG-AGM and extractable lipids fractions [3]: signal only in the extractable lipids fraction | labeling after only a few seconds of culture time [10]: significant labeling could be detected | labeling features in time-course fluorescence microscopy [10]: intensely fluorescent septa in dividing cells, highly polar labeling for short pulses, and diffuse surface labeling for longer pulses | S/N reached under the conditions tested ([10]; Msmeg 14 h, 1-250 μm probe, Az488 CuAAC, flow cytometry): > 150 | signal lower than O-AlkTMM at the same concentrations ([10]; Msmeg 14 h, flow cytometry): approximately 10 fold | change in labeling between log- and stationary-phase Msmeg [10]: significant decrease | labeling of Msmeg [10]: strong labeling of the cell surface

C#CCCCCC(=O)OCC1O[C@H](O[C@H]2OC(CO)[C@@H](O)C(O)[C@H]2O)C(O)[C@@H](O)[C@@H]1O (stereo partly drawn) [O-AlkTMM, 6-O-(6-heptynoyl)-α,α-D-trehalose]
water solubility [11]: conveniently water-soluble | dependence of incorporation on trehalose transporter SugABC-LpqY [4]: not dependent on the trehalose transporter SugABC-LpqY | labeling of B. subtilis [5]: no labeling above background | labeling of C. glutamicum [6]: strong labeling of the cell surface | growth impairment of Msmeg [7]: no growth impairment | labeling of E. coli [8]: no labeling above background | decrease of labeling upon treatment of Msmeg with ebselen [2]: approximately 70% | competition of labeling signal by unlabeled version of the probe [9]: Dose-dependent competition of signal | distribution of fluorescence between PG-AGM and extractable lipids fractions [3]: nearly all of the fluorescence from O-AlkTMM treated Msmeg was present in the PG-AGM fraction | fraction of probe reacting with TMM to form alkyne-labeled TDM ([3]; estimated from extractable lipids fluorescence, FIG. 7): ≤ 10% | labeling after only a few seconds of culture time [10]: significant labeling could be detected | labeling features in time-course fluorescence microscopy [10]: intensely fluorescent septa in dividing cells, highly polar labeling for short pulses, and diffuse surface labeling for longer pulses | concentration at which labeling was saturable ([10]; Msmeg 14 h, Az488 CuAAC, flow cytometry): 50 | signal-to-noise ratio (S/N) of labeling ([10]; Msmeg cultured 14 h, Az488 CuAAC, flow cytometry): > 20 | change in labeling between log- and stationary-phase Msmeg [10]: significant decrease | labeling of Msmeg [10]: strong labeling of the cell surface

C#CCCC(=O)OCC1O[C@H](O[C@H]2OC(CO)[C@@H](O)C(O)C2O)C(O)C(O)[C@@H]1O (stereo partly drawn) [O-AlkTMM-C5, 6-O-(4-pentynoyl)-α,α-D-trehalose]
water solubility [11]: conveniently water-soluble

[N-]=[N+]=NCCCCCCCCCC(=O)OCC1O[C@H](O[C@H]2OC(CO)[C@@H](O)C(O)C2O)C(O)C(O)[C@@H]1O (stereo partly drawn) [O-AzTMM-C10, 6-O-(10-azidodecanoyl)-α,α-D-trehalose]
concentration of labeling saturation [1]: approximately 25 μM

O=C(CCCCCCCCCNC(=S)Nc1ccc2c(c1)C(=O)OC21c2ccc(O)cc2Oc2cc(O)ccc21)OC[C@H]1O[C@H](O[C@H]2O[C@H](CO)[C@@H](O)[C@H](O)[C@H]2O)[C@H](O)[C@@H](O)[C@@H]1O [O-FITC-TMM, 6-O-(10-[(fluorescein-5-yl)thioureido]decanoyl)-α,α-D-trehalose]
concentration of labeling saturation [1]: ≥ 100 µM | incorporation into Cglut relative to Msmeg [12]: much more efficiently than in Msmeg

O=C(CCCCCCCCCNC(=O)OC1CC/C=C/CCC1)OC[C@H]1O[C@H](O[C@H]2O[C@H](CO)[C@@H](O)[C@H](O)[C@H]2O)[C@H](O)[C@@H](O)[C@@H]1O (stereo partly drawn) [O-TCO-TMM, 6-O-(10-{N—[(E)-cylcooct-4-en1yloxy]carbonyl}aminodecanoyl)-α,α-D-trehalose]
concentration of labeling saturation [1]: approximately 25 μM | incorporation into Cglut relative to Msmeg [12]: much more efficiently than in Msmeg
